Assays:
Rattus norvegicus [1] = species: Rattus norvegicus; test: Displacement of [125I]somatostatin from rat somatostatin receptor at 5 ug/ml
Rattus norvegicus [2] = species: Rattus norvegicus; test: Displacement of [3H]NPY from rat neuropeptide Y receptor at 5 ug/ml
[3] = target: B2 bradykinin receptor (Homo sapiens) (UniProt P30411); test: Displacement of [3H]bradykinin from human B2 bradykinin receptor expressed in SF21 cells at 5 ug/ml
B2 bradykinin receptor (Homo sapiens), sequence (P30411 whole entry, looked up): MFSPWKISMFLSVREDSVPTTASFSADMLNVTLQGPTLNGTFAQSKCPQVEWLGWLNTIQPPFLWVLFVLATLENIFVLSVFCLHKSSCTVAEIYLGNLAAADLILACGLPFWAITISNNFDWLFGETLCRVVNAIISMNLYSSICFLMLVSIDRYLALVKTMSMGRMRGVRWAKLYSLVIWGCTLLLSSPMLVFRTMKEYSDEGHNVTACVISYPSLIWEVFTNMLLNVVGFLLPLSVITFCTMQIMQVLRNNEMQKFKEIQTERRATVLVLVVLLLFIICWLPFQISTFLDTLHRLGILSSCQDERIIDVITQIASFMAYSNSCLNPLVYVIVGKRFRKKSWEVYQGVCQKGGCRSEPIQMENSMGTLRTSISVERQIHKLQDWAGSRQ

Activity (Rattus norvegicus [1]) [%] | Activity (Rattus norvegicus [2]) [%] | Activity [3] [%] | Compound
77 |  |  | N=C(N)NCCC[C@@]1(O)C(=O)N(CC(=O)N/C=C/c2ccc(O)cc2)[C@@](O)(C(=O)NCC(=O)N/C=C/c2ccc(O)cc2)[C@@H]1CCNC(=N)N
 | 80 | 71 | C[C@@H](C(=O)N/C=C/c1ccc(O)cc1)N1C(=O)[C@](O)(CCCNC(=N)N)[C@@H](CCNC(=N)N)[C@]1(O)C(=O)NCC(=O)N/C=C/c1ccc(O)cc1
62 | 57 | 52 | C[C@H](NC(=O)[C@@]1(O)[C@H](CCNC(=N)N)[C@@](O)(CCCNC(=N)N)C(=O)N1CC(=O)N/C=C/c1ccc(O)cc1)C(=O)N/C=C/c1ccc(O)cc1
35 | 35 | 35 | C[C@H](NC(=O)[C@@]1(O)[C@H](CCNC(=N)N)[C@@](O)(CCCNC(=N)N)C(=O)N1[C@@H](C)C(=O)N/C=C/c1ccc(O)cc1)C(=O)N/C=C/c1ccc(O)cc1
